In patent US12043632B2, “6-heteroaryloxy benzimidazoles and azabenzimidazoles as JAK2 inhibitors” (Ajax Therapeutics, Inc., priority 2020, dated 2024):

Biological target: T1, JAK2 (JH1domain-catalytic, Y1007F,Y1008F) kinase (Homo sapiens, UniProt O60674, Y1007F/Y1008F)
T1 construct: JAK2 (JH1domain-catalytic, Y1007F,Y1008F) kinase was expressed as N-terminal fusion; made in house; host or cells: transiently transfected HEK293 cells
Assay: JAK2 JH1 Domain Binding Assay
Conditions: qPCR readout

T1 sequence (O60674 849-1124 Y1007F/Y1008F limits assumed): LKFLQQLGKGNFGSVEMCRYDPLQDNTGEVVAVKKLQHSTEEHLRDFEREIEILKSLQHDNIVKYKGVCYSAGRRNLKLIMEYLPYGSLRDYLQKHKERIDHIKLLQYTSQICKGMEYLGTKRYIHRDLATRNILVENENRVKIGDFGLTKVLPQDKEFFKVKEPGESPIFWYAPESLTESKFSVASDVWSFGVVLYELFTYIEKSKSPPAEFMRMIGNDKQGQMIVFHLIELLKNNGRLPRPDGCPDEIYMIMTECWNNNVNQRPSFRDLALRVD

COc1c(Oc2cnn3ccnc(OC)c23)cnc2nc(Nc3cc(C4CC4)cn(C)c3=O)n(C)c12 [Example I-211, 5-cyclopropyl-3-((7-methoxy-6-((4-methoxypyrazolo[1,5-a]pyrazin-3-yl)oxy)-1-methyl-1H-imidazo[4,5-b]pyridin-2-yl)amino)-1-methylpyridin-2(1H)-one]
Kd: < 10 nM

Cn1c(Nc2cc(C3CC3)cn([C@@H]3CC[C@@H]3O)c2=O)nc2ncc(Oc3cnn4ccncc34)c(Cl)c21 (single isomer, unassigned) [Example I-98-a]
Kd: < 10 nM
